In patent US6713455B2, “6-O-carbamate-11,12-lacto-ketolide antimicrobials” (Ortho-McNeil Pharmaceutical, Inc., priority 2001, dated 2004):
Values after ≈ are worked out from the molar mass of the structure shown.

What was measured:
Test in all cases: MIC, microdilution broth method (NCCLS)
Format in all cases: cell-based
Conditions in all cases: 35° C., 16-20 hours
E. coli OC2605 = test system: E. coli OC2605
Experimental: (§1) Minimal inhibitory concentration (MIC) has been an indicator of in vitro antibacterial activity widely used in the art. The in vitro antimicrobial activity of the compounds was determined by the microdilution broth method following the test method from the National Committee for Clinical Laboratory Standards (NCCLS). This method is described in the NCCLS Document M7-A4, Vol.17, No.2, “Methods for Dilution Antimicrobial Susceptibility Test for Bacteria that Grow Aerobically—Fourth Edition”, which is incorporated herein by reference.
(§2) In this method two-fold serial dilutions of drug in cation adjusted Mueller-Hinton broth are added to wells in microdilution trays. The test organisms are prepared by adjusting the turbidity of actively growing broth cultures so that the final concentration of test organism after it is added to the wells is approximately 5×10^4 CFU/well.
(§3) Following inoculation of the microdilution trays, the trays are incubated at 35° C. for 16-20 hours and then read. […] The amount of growth in the wells containing the test compound is compared with the amount of growth in the growth-control wells (no test compound) used in each tray. As set forth in Table 1, compounds of the present invention were tested against a variety of Gram positive and Gram negative pathogenic bacteria resulting in a range of activities depending on the organism tested.

H. influenzae ATCC49247 = test system: H. influenzae ATCC49247
Experimental: as §1, §2, §3

E. faecalis ATCC29212 = test system: E. faecalis ATCC29212
Experimental: as §1, §2, §3

S. pneumoniae ATCC49619 = test system: S. pneumoniae ATCC49619
Experimental: as §1, §2, §3

S. aureus ATCC29213 = test system: S. aureus ATCC29213
Experimental: as §1, §2, §3

SMILES | MIC (μg/mL) A (E. coli OC2605) [µg/mL] | MIC (μg/mL) E (H. influenzae ATCC49247) [µg/mL] | MIC (μg/mL) C (E. faecalis ATCC29212) [µg/mL] | MIC (μg/mL) D (S. pneumoniae ATCC49619) [µg/mL] | MIC (μg/mL) B (S. aureus ATCC29213) [µg/mL] | MIC (E. coli OC2605; Escherichia coli) [µg/mL] | MIC (H. influenzae ATCC49247; Haemophilus influenzae) [µg/mL] | MIC (E. faecalis ATCC29212; Enterococcus faecalis) [µg/mL] | MIC (S. pneumoniae ATCC49619; Streptococcus pneumoniae) [µg/mL] | MIC (S. aureus ATCC29213; Staphylococcus aureus) [µg/mL]
CCC1OC(=O)C(C)C(=O)C(C)C(OC2OC(C)CC(N(C)C)C2O)C(C)(OC(=O)NCc2ccc3ccccc3n2)CC(C)C(=O)C(C)C2CC(=O)OC12C (stereo not drawn) [Compound 28] | >16 | 8 (≈ 10.2 µM) | 0.5 (≈ 0.639 µM) | 0.12 (≈ 0.153 µM) | 2 (≈ 2.56 µM) |  |  |  |  | 
CCC1OC(=O)C(C)C(=O)C(C)C(OC2OC(C)CC(N(C)C)C2O)C(C)(OC(=O)NCC=Cc2ccc(-c3ccccn3)cc2)CC(C)C(=O)C(C)C2CC(=O)OC12C (stereo not drawn) [Compound 29] | >16 | 2 (≈ 2.4 µM) | 0.25 (≈ 0.3 µM) | 0.06 (≈ 0.0719 µM) | 0.5 (≈ 0.6 µM) |  |  |  |  | 
CCC1OC(=O)C(C)C(=O)C(C)C(OC2OC(C)CC(N(C)C)C2O)C(C)(OC(=O)NCC=Cc2ccc3cccnc3c2)CC(C)C(=O)C(C)C2CC(=O)OC12C (stereo not drawn) [Compound 31] | 16 (≈ 19.8 µM) | >16 | 0.06 (≈ 0.0743 µM) | 0.03 (≈ 0.0371 µM) | 0.25 (≈ 0.309 µM) |  |  |  |  | 
CCC1OC(=O)C(C)C(=O)C(C)C(OC2OC(C)CC(N(C)C)C2O)C(C)(OC(=O)NCC=Cc2ccc(-c3ncccn3)cc2F)CC(C)C(=O)C(C)C2CC(=O)OC12C (stereo not drawn) [Compound 32] | >16 | 8 (≈ 9.38 µM) | 0.25 (≈ 0.293 µM) | 0.06 (≈ 0.0703 µM) | 0.5 (≈ 0.586 µM) |  |  |  |  | 
CCC1OC(=O)C(C)C(=O)C(C)C(OC2OC(C)CC(N(C)C)C2O)C(C)(OC(=O)NCC=Cc2ccccn2)CC(C)C(=O)C(C)C2CC(=O)OC12C (stereo not drawn) [Compound 33] | >16 | 8 (≈ 10.6 µM) | 0.5 (≈ 0.66 µM) | 0.12 (≈ 0.158 µM) | 2 (≈ 2.64 µM) |  |  |  |  | 
CCC1OC(=O)C(C)C(=O)C(C)C(OC2OC(C)CC(N(C)C)C2O)C(C)(OC(=O)NCC=Cc2cccnc2)CC(C)C(=O)C(C)C2CC(=O)OC12C (stereo not drawn) [Compound 34] | >16 | 2 (≈ 2.64 µM) | 0.12 (≈ 0.158 µM) | 0.06 (≈ 0.0792 µM) | 0.5 (≈ 0.66 µM) |  |  |  |  | 

Continued, values first:

MIC (μg/mL) A (E. coli OC2605) [µg/mL] | MIC (μg/mL) E (H. influenzae ATCC49247) [µg/mL] | MIC (μg/mL) C (E. faecalis ATCC29212) [µg/mL] | MIC (μg/mL) D (S. pneumoniae ATCC49619) [µg/mL] | MIC (μg/mL) B (S. aureus ATCC29213) [µg/mL] | MIC (E. coli OC2605; Escherichia coli) [µg/mL] | MIC (H. influenzae ATCC49247; Haemophilus influenzae) [µg/mL] | MIC (E. faecalis ATCC29212; Enterococcus faecalis) [µg/mL] | MIC (S. pneumoniae ATCC49619; Streptococcus pneumoniae) [µg/mL] | MIC (S. aureus ATCC29213; Staphylococcus aureus) [µg/mL] | SMILES
>16 | 4 (≈ 4.8 µM) | 0.25 (≈ 0.3 µM) | 0.12 (≈ 0.144 µM) | 0.5 (≈ 0.6 µM) |  |  |  |  |  | CCC1OC(=O)C(C)C(=O)C(C)C(OC2OC(C)CC(N(C)C)C2O)C(C)(OC(=O)NCC=Cc2ccc(-c3ccccc3)nc2)CC(C)C(=O)C(C)C2CC(=O)OC12C (stereo not drawn) [Compound 35]
>16 | 16 (≈ 18.1 µM) | 1 (≈ 1.13 µM) | 0.25 (≈ 0.283 µM) | 4 (≈ 4.52 µM) |  |  |  |  |  | CCC1OC(=O)C(C)C(=O)C(C)C(OC2OC(C)CC(N(C)C)C2O)C(C)(OC(=O)NCc2ccc(C=Cc3ccc4ccccc4n3)cc2)CC(C)C(=O)C(C)C2CC(=O)OC12C (stereo not drawn) [Compound 36]
 |  |  |  |  | > 16 | 4 (≈ 4.85 µM) | 0.12 (≈ 0.145 µM) | 0.03 (≈ 0.0364 µM) | 0.5 (≈ 0.606 µM) | CC[C@H]1OC(=O)[C@H](C)C(=O)[C@H](C)[C@@H](OC2O[C@H](C)C[C@H](N(C)C)[C@H]2O)[C@](C)(OC(=O)NC/C=C/c2cn(-c3ncccn3)cn2)C[C@@H](C)C(=O)C(C)C2CC(=O)O[C@@]21C (stereo partly drawn) [Compound 37]
>16 | 2 (≈ 2.47 µM) | 0.12 (≈ 0.148 µM) | 0.03 (≈ 0.0371 µM) | 0.5 (≈ 0.618 µM) |  |  |  |  |  | CCC1OC(=O)C(C)C(=O)C(C)C(OC2OC(C)CC(N(C)C)C2O)C(C)(OC(=O)NCC=Cc2ccc3nccnc3c2)CC(C)C(=O)C(C)C2CC(=O)OC12C (stereo not drawn) [Compound 38]
16 (≈ 19.8 µM) | 4 (≈ 4.95 µM) | 0.12 (≈ 0.149 µM) | 0.03 (≈ 0.0371 µM) | 0.5 (≈ 0.619 µM) |  |  |  |  |  | CCC1OC(=O)C(C)C(=O)C(C)C(OC2OC(C)CC(N(C)C)C2O)C(C)(OC(=O)NCC=Cc2ccnc3ccccc23)CC(C)C(=O)C(C)C2CC(=O)OC12C (stereo not drawn) [Compound 39]
16 (≈ 19.1 µM) | 1 (≈ 1.2 µM) | 0.12 (≈ 0.144 µM) | 0.03 (≈ 0.0359 µM) | 0.25 (≈ 0.299 µM) |  |  |  |  |  | CCC1OC(=O)C(C)C(=O)C(C)C(OC2OC(C)CC(N(C)C)C2O)C(C)(OC(=O)NCC=Cc2cncc(-c3ncccn3)c2)CC(C)C(=O)C(C)C2CC(=O)OC12C (stereo not drawn) [Compound 40]
